Earlier results, collected in patent publication US20090098173A1, “TOPICAL PAIN RELIEF PRODUCT” (priority 2007, published 2009).

Details: as described in U.S. Pat. No. 7,189,760 / 7,030,273

For `CCOC(=O)CNC(=O)C1CC(C)CCC1C(C)C` (stereo not shown) [ethyl ester of N-[[5-methyl-2-(1-methylethyl)cyclohexyl]carbonyl]glycine], the physiological cooling activity is given as “substantially high physiological cooling activity”.
